Experimental data: patent US6653258B1 (priority 1987, dated 2003)

How the values were obtained:
[1] = test system: foliar fungal diseases of plants; assay type: in vivo; parameters: key to disease control grading, […] (VINE): 4: no disease; 3: trace −5% of disease on untreated plants; key to disease control grading, PUCCINIA RECONDITA (WHEAT) / disease control grading, VENTURIA INAEQUALIS (APPLE) / disease control grading, CERCOSPORA ARACHIDICOLA (PEANUT) / disease control grading, PH[…] (TOMATO) / disease control grading, P[…] (RICE): 4: no disease; 3: trace −5% of disease on untreated plants; 6-25% of disease on untreated plants; 1: 26-59% of disease on untreated plants; 60-100% of disease on untreated plants; conditions: applied to soil (roots) and foliage one or two days before inoculation; for disease control grading, CERCOSPORA ARACHIDICOLA (PEANUT): Cercospora arachidicola on peanut; for disease control grading, P[…] (RICE): P[…] on rice; for disease control grading, PH[…] (TOMATO): Ph[…] on tomato; for disease control grading, PUCCINIA RECONDITA (WHEAT): Puccinia recondita on wheat; for disease control grading, VENTURIA INAEQUALIS (APPLE): Venturia inaequalis on apple; for disease control grading, […] (VINE): […] on vine
[2] = test system: Erysiphe graminis; assay: Foliar fungal disease test on Erysiphe graminis, plants inoculated 24 hours before treatment (Table V); assay type: in vivo; parameters: key: 4: no disease; 3: trace −5% of disease on untreated plants; 6-25% of disease on untreated plants; 1: 26-59% of disease on untreated plants; 60-100% of disease on untreated plants; conditions: plants inoculated 24 hours before treatment

Compound	disease control grading, CERCOSPORA ARACHIDICOLA (PEANUT) [1]	disease control grading, P[…] (RICE) [1]	disease control grading, PH[…] (TOMATO) [1]	disease control grading, PUCCINIA RECONDITA (WHEAT) [1]	disease control grading, VENTURIA INAEQUALIS (APPLE) [1]	disease control grading, […] (VINE) [1]	disease control grading, ERYSIPHE GRAMINIS (BARLEY) [2]
CCc1ccccc1OCc1ccccc1/C(=C\OC)C(=O)OC [27 (Table I)]	4	1 (26-59% of disease on untreated plants)	4	4	4	0 (60-100% of disease on untreated plants)	4
CO/C=C(/C(=O)OC)c1ccccc1CSc1ccccc1 [1 (Table II)]	0 (60-100% of disease on untreated plants)	3 (trace −5% of disease on untreated plants)	4	4	4	4	2 (6-25% of disease on untreated plants)
CO/C=C(/C(=O)OC)c1ccccc1COc1cccc(C(F)(F)F)c1 [168 (Table I)]	3 (trace −5% of disease on untreated plants)	4	4	4	4	4	4
CO/C=C(/C(=O)OC)c1ccccc1COc1cccc(Oc2ccccc2)c1 [165 (Table I)]	0 (60-100% of disease on untreated plants)	4	4	4	0 (60-100% of disease on untreated plants)	4	4
CO/C=C(/C(=O)OC)c1ccccc1COc1cccc(Cl)c1Cl [163 (Table I)]	4	2 (6-25% of disease on untreated plants)	4	4	4	4	4
CO/C=C(/C(=O)OC)c1ccccc1COc1cccc(Oc2cccc(C)c2)c1 [181 (Table I)]	4	3 (trace −5% of disease on untreated plants)	4	4	4	4	4
CO/C=C(/C(=O)OC)c1ccccc1COc1ccccc1[N+](=O)[O-] [33 (Table I)]	4	4	3 (trace −5% of disease on untreated plants)	4	4	4	2 (6-25% of disease on untreated plants)
CO/C=C(/C(=O)OC)c1ccccc1COc1ccc(Br)cc1 [159 (Table I)]	4	0 (60-100% of disease on untreated plants)	3 (trace −5% of disease on untreated plants)	4	4	0 (60-100% of disease on untreated plants)	3 (trace −5% of disease on untreated plants)
CO/C=C(/C(=O)OC)c1ccccc1COc1ccc2ccccc2n1 [149 (Table I)]	–	4	4	4	4	4	4
CO/C=C(/C(=O)OC)c1ccccc1COc1cccc(Oc2ccccc2)n1 [185 (Table I)]	4	4	4	4	2 (6-25% of disease on untreated plants)	4	4
CO/C=C(/C(=O)OC)c1ccccc1COc1cccc(C(F)(F)F)n1 [177 (Table I)]	–	4	4	4	4	4	4
CO/C=C(/C(=O)OC)c1ccccc1COc1cccc(Br)c1 [166 (Table I)]	4	4	4	4	4	4	4
CO/C=C(/C(=O)OC)c1ccccc1COc1cccc(OCc2ccccc2)c1 [184 (Table I)]	4	3 (trace −5% of disease on untreated plants)	4	4	4	4	4
